# Test results from BigSolDB 2.1.
compound,measurement,setting,value
CC[C@H](C)C(=O)O[C@H]1C[C@@H](C)C=C2C=C[C@H](C)[C@H](CC[C@@H]3C[C@@H](O)CC(=O)O3)[C@H]21,solubility (mole fraction),"in 2-butanone, 285.1 K",0.00752
same,solubility (mole fraction),"in 2-butanone, 288.3 K",0.00878
same,solubility (mole fraction),"in 2-butanone, 291.2 K",0.00918
same,solubility (mole fraction),"in 2-butanone, 294.6 K",0.0111
same,solubility (mole fraction),"in 2-butanone, 297.2 K",0.0115
same,solubility (mole fraction),"in 2-butanone, 300.3 K",0.0132
same,solubility (mole fraction),"in 2-butanone, 303.1 K",0.0147
same,solubility (mole fraction),"in 2-butanone, 306.3 K",0.0175
same,solubility (mole fraction),"in 2-butanone, 309.4 K",0.0197
same,solubility (mole fraction),"in 2-butanone, 312.2 K",0.0219
same,solubility (mole fraction),"in acetone, 285.1 K",0.00831
same,solubility (mole fraction),"in acetone, 288.3 K",0.00936
same,solubility (mole fraction),"in acetone, 291.2 K",0.0104
same,solubility (mole fraction),"in acetone, 294.6 K",0.0118
same,solubility (mole fraction),"in acetone, 297.2 K",0.013
same,solubility (mole fraction),"in acetone, 300.3 K",0.0146
same,solubility (mole fraction),"in acetone, 303.1 K",0.0163
same,solubility (mole fraction),"in acetone, 306.3 K",0.0183
same,solubility (mole fraction),"in acetone, 309.4 K",0.0206
same,solubility (mole fraction),"in acetone, 312.2 K",0.0228
same,solubility (mole fraction),"in ethyl acetate, 285.1 K",0.00417
same,solubility (mole fraction),"in ethyl acetate, 288.3 K",0.0047
same,solubility (mole fraction),"in ethyl acetate, 291.2 K",0.00517
same,solubility (mole fraction),"in ethyl acetate, 294.6 K",0.00586
same,solubility (mole fraction),"in ethyl acetate, 297.2 K",0.00656
same,solubility (mole fraction),"in ethyl acetate, 300.3 K",0.00706
same,solubility (mole fraction),"in ethyl acetate, 303.1 K",0.00778
same,solubility (mole fraction),"in ethyl acetate, 306.3 K",0.0087
same,solubility (mole fraction),"in ethyl acetate, 309.4 K",0.00967
same,solubility (mole fraction),"in ethyl acetate, 312.2 K",0.0108
same,solubility (mole fraction),"in isobutyl acetate, 285.1 K",0.00345
same,solubility (mole fraction),"in isobutyl acetate, 288.3 K",0.00383
same,solubility (mole fraction),"in isobutyl acetate, 291.2 K",0.00422
same,solubility (mole fraction),"in isobutyl acetate, 294.6 K",0.0047
same,solubility (mole fraction),"in isobutyl acetate, 297.2 K",0.00504
same,solubility (mole fraction),"in isobutyl acetate, 300.3 K",0.0057
same,solubility (mole fraction),"in isobutyl acetate, 303.1 K",0.00627
same,solubility (mole fraction),"in isobutyl acetate, 306.3 K",0.00702
same,solubility (mole fraction),"in isobutyl acetate, 309.4 K",0.00777
same,solubility (mole fraction),"in isobutyl acetate, 312.2 K",0.00864
same,solubility (mole fraction),"in isopropyl acetate, 285.1 K",0.00335
same,solubility (mole fraction),"in isopropyl acetate, 288.3 K",0.00372
same,solubility (mole fraction),"in isopropyl acetate, 291.2 K",0.00412
same,solubility (mole fraction),"in isopropyl acetate, 294.6 K",0.00459
same,solubility (mole fraction),"in isopropyl acetate, 297.2 K",0.00497
same,solubility (mole fraction),"in isopropyl acetate, 300.3 K",0.00553
same,solubility (mole fraction),"in isopropyl acetate, 303.1 K",0.00606
same,solubility (mole fraction),"in isopropyl acetate, 306.3 K",0.00677
same,solubility (mole fraction),"in isopropyl acetate, 309.4 K",0.00756
same,solubility (mole fraction),"in isopropyl acetate, 312.2 K",0.00832
same,solubility (mole fraction),"in methyl acetate, 285.1 K",0.00309
same,solubility (mole fraction),"in methyl acetate, 288.3 K",0.0034
same,solubility (mole fraction),"in methyl acetate, 291.2 K",0.00376
same,solubility (mole fraction),"in methyl acetate, 294.6 K",0.00417
same,solubility (mole fraction),"in methyl acetate, 297.2 K",0.00447
same,solubility (mole fraction),"in methyl acetate, 300.3 K",0.00515
same,solubility (mole fraction),"in methyl acetate, 303.1 K",0.00543
same,solubility (mole fraction),"in methyl acetate, 306.3 K",0.00619
same,solubility (mole fraction),"in methyl acetate, 309.4 K",0.00674
same,solubility (mole fraction),"in methyl acetate, 312.2 K",0.00746
same,solubility (mole fraction),"in n-butyl acetate, 285.1 K",0.00407
same,solubility (mole fraction),"in n-butyl acetate, 288.3 K",0.00452
same,solubility (mole fraction),"in n-butyl acetate, 291.2 K",0.00494
same,solubility (mole fraction),"in n-butyl acetate, 294.6 K",0.00557
same,solubility (mole fraction),"in n-butyl acetate, 297.2 K",0.00611
same,solubility (mole fraction),"in n-butyl acetate, 300.3 K",0.00679
same,solubility (mole fraction),"in n-butyl acetate, 303.1 K",0.00748
same,solubility (mole fraction),"in n-butyl acetate, 306.3 K",0.00836
same,solubility (mole fraction),"in n-butyl acetate, 309.4 K",0.00931
same,solubility (mole fraction),"in n-butyl acetate, 312.2 K",0.0103
same,solubility (mole fraction),"in n-propyl acetate, 285.1 K",0.00395
same,solubility (mole fraction),"in n-propyl acetate, 288.3 K",0.00438
same,solubility (mole fraction),"in n-propyl acetate, 291.2 K",0.00481
same,solubility (mole fraction),"in n-propyl acetate, 294.6 K",0.00544
same,solubility (mole fraction),"in n-propyl acetate, 297.2 K",0.00587
same,solubility (mole fraction),"in n-propyl acetate, 300.3 K",0.00658
same,solubility (mole fraction),"in n-propyl acetate, 303.1 K",0.00724
same,solubility (mole fraction),"in n-propyl acetate, 306.3 K",0.00803
same,solubility (mole fraction),"in n-propyl acetate, 309.4 K",0.00901
same,solubility (mole fraction),"in n-propyl acetate, 312.2 K",0.00997
same,solubility (mole fraction),"in sec-butyl acetate, 285.1 K",0.00365
same,solubility (mole fraction),"in sec-butyl acetate, 288.3 K",0.00401
same,solubility (mole fraction),"in sec-butyl acetate, 291.2 K",0.00446
same,solubility (mole fraction),"in sec-butyl acetate, 294.6 K",0.005
same,solubility (mole fraction),"in sec-butyl acetate, 297.2 K",0.00545
same,solubility (mole fraction),"in sec-butyl acetate, 300.3 K",0.00606
same,solubility (mole fraction),"in sec-butyl acetate, 303.1 K",0.00666
same,solubility (mole fraction),"in sec-butyl acetate, 306.3 K",0.00745
same,solubility (mole fraction),"in sec-butyl acetate, 309.4 K",0.0083
same,solubility (mole fraction),"in sec-butyl acetate, 312.2 K",0.00915
same,solubility (mole fraction),"in tert-butyl acetate, 285.1 K",0.00275
same,solubility (mole fraction),"in tert-butyl acetate, 288.3 K",0.00314
same,solubility (mole fraction),"in tert-butyl acetate, 291.2 K",0.00346
same,solubility (mole fraction),"in tert-butyl acetate, 294.6 K",0.00386
same,solubility (mole fraction),"in tert-butyl acetate, 297.2 K",0.0042
same,solubility (mole fraction),"in tert-butyl acetate, 300.3 K",0.00479
same,solubility (mole fraction),"in tert-butyl acetate, 303.1 K",0.0051
same,solubility (mole fraction),"in tert-butyl acetate, 306.3 K",0.00569
same,solubility (mole fraction),"in tert-butyl acetate, 309.4 K",0.00638
same,solubility (mole fraction),"in tert-butyl acetate, 312.2 K",0.00693
